{
  "source": "paper PMC13071375",
  "about": "“Restriction endonuclease selective inhibition by β-cyclodextrin sulfate” (Bioscience Reports, 2025)",
  "key": {"EcoRI": {"target": "T1, EcoRI (Escherichia coli, UniProt P00642)", "T1 construct": "purchased Thermo Fisher Scientific ER0271", "T1 sequence (P00642 2-277)": "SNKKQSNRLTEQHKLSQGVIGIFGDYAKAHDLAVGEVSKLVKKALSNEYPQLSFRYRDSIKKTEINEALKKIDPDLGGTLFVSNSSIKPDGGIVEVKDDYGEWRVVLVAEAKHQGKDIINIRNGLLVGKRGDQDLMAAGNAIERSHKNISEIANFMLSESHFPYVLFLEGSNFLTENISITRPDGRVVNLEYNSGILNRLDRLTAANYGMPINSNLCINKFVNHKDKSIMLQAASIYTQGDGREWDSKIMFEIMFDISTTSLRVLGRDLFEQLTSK", "type": "biochemical", "procedure": "(§2) Digestion time course studies were conducted for each RE by incubating 2 μl of NdeI-linearised pBR322 (2.5 ng/μl), 1 μl of RE (1.25 U/μl), 2 μl of appropriate buffer, and 15 μl of molecular biology grade water at 37°C for various times (Supplementary Figure S1). […] These times were used as the digestion time for the RE inhibition assays.\n(§3) To determine the effects of β-CDsul treatment on REs, Nl-pBR322 was incubated at 37°C with EcoRI, VspI, or HindIII for the previously determined amount of time.\n(§4) β-CDsul and EDTA stock solutions were made in molecular biology grade water, and dilution series were prepared at appropriate concentrations to give the necessary final concentrations of each in the assay mixture. The assay mixture composition was 2 μl of Nl-pBR322 (2.5 ng/μl), 1 μl of RE (1.25 U/μl), 2 μl of appropriate buffer, 1 μl of β-CDsul or EDTA at desired concentration, and 14 μl of molecular biology grade water. As a negative control, 1 μl extra of microbiology grade water was used instead of EDTA or β-CDsul. After the appropriate amount of incubation time at 37°C, the REs were thermally inactivated by incubation at 65°C for 20 min.\nElectrophoresis gel solution was prepared using 0.8% (w/v) agarose (Thermo Scientific™ Agarose I (Molecular Biology Grade)) with 1× TBE Buffer (Thermo Scientific™ TBE Buffer (Tris–borate–EDTA) (10×)). The mixture was heated until the agarose was completely dissolved and the solution became clear. Sybr Safe DNA stain (1% (v/v), Invitrogen™ SYBR™ Safe DNA Gel Stain) was added into the agarose solution. The final solution was poured into the gel tray and cooled down to room temperature (25°C). Ten microliters of samples from digestion experiments was mixed well with 1 μl of 500× diluted SYBR Safe Gel Stain (ThermoFisher Scientific™ Invitrogen, catalogue number S33102) and 1 μl of 5× diluted FlashGel Loading Dye (Lonza Bioscience, catalogue number 50462) and then loaded into wells. A FlashGel™ Dock system was used for electrophoresis with a voltage of 0–300 VDC, power of 15 W, and current of 50 mA.\n(§5) Gel images were captured using a UV-transilluminator capturing system (Syngene™ Ingenius 3 Manual Gel Documentation System) with the following parameters: resolution: 3.0 MP, bit depth: 12/16 bit, and wavelength: 302 nm. The images were analysed using GelAnalyzer [19] software by calculating the normalised intensities of fragment bands."}, "Nrul": {"system": "Nrul", "parameters": "method as in PMID 25126898", "settings": "digestion of λ DNA; cited from earlier work"}, "HindIII [1]": {"target": "T2, HindIII (Haemophilus influenzae, UniProt P43870)", "T2 sequence (P43870 whole entry)": "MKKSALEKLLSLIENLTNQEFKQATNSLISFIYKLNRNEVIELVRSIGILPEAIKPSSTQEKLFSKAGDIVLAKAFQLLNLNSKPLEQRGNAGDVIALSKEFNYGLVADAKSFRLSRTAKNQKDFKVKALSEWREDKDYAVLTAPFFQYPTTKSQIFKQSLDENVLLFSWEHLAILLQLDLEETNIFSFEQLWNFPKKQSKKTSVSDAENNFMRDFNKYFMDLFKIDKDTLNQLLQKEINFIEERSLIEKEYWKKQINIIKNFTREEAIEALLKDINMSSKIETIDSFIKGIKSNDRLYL", "settings": "read-out: IC50 HindIII; Nl-pBR322 substrate, 40 min digestion at 37°C, Buffer R", "procedure": "as §2, §3, §4\n(§6) Electrophoresis gel solution was prepared using 0.8% (w/v) agarose (Thermo Scientific™ Agarose I (Molecular Biology Grade)) with 1× TBE Buffer (Thermo Scientific™ TBE Buffer (Tris–borate–EDTA) (10×)). The mixture was heated until the agarose was completely dissolved and the solution became clear. Sybr Safe DNA stain (1% (v/v), Invitrogen™ SYBR™ Safe DNA Gel Stain) was added into the agarose solution. The final solution was poured into the gel tray and cooled down to room temperature (25°C). […]\nas §5"}, "VspI": {"system": "VspI", "type": "biochemical", "settings": "for IC50: Nl-pBR322 substrate, 20 min digestion at 37°C, Buffer O", "procedure": "as §2, §3, §4, §6, §5"}, "EcoRI and VspI [2]": {"system": "EcoRI and VspI", "assay": "Co-digestion assay of Nl-pBR322 with EcoRI and VspI (dual RE system)", "type": "biochemical", "experimental": "(§1) The digestion time was either variable or fixed at 120 min for the variable concentration experiment to achieve full digestion. The composition of the components with the co-digestion assays was more complex than single digestion systems due to the need for simultaneously optimising the activity of each RE in the non-ideal buffer system of the other RE."}, "EcoRI and VspI [3]": {"system": "T3, EcoRI and VspI", "T3 construct": "purchased Thermo Fisher Scientific ER0271, ER0911", "assay": "Co-digestion assay of Nl-pBR322 with EcoRI and VspI (dual RE system)", "type": "biochemical", "experimental": "as §1"}, "HindIII [4]": {"target": "T2, HindIII", "parameters": "purchased Thermo Fisher Scientific ER0501; method as in PMID 25126898", "settings": "digestion of λ DNA; cited from earlier work"}, "HindIII [5]": {"target": "T2, HindIII", "assay": "biochemical", "settings": "Nl-pBR322 substrate, 40 min digestion at 37°C, Buffer R", "procedure": "as §2, §3, §4, §6, §5"}, "XapI": {"system": "XapI", "parameters": "method as in PMID 25581012", "settings": "cited from earlier work"}, "KpnI": {"system": "KpnI", "parameters": "method as in PMID 25581012", "settings": "cited from earlier work"}, "SacI": {"system": "SacI", "parameters": "method as in PMID 25581012", "settings": "cited from earlier work"}, "REs": {"system": "REs", "parameters": "method as in PMID 25126898", "settings": "cited from earlier work"}, "[6]": {"settings": "Nl-pBR322 substrate, 20 min digestion at 37°C, Buffer EcoRI, read-out: IC50 EcoRI"}, "[7]": {"settings": "10 μM β-CDsul, time course 30–240 min"}},
  "note": "Several values for one entry are separate records, joined by “and”; a condition that tells them apart may be missing. Equal values may be shown once. Where a name gives a salt, the structure may show the parent alone. Read-outs that look alike come from different tables or passages of the source.",
  "data": [
    {"smiles": "O=S(=O)(O)OCC1OC2OC3C(COS(=O)(=O)O)OC(OC4C(COS(=O)(=O)O)OC(OC5C(COS(=O)(=O)O)OC(OC6C(COS(=O)(=O)O)OC(OC7C(COS(=O)(=O)O)OC(OC8C(COS(=O)(=O)O)OC(OC1C(OS(=O)(=O)O)C2OS(=O)(=O)O)C(OS(=O)(=O)O)C8OS(=O)(=O)O)C(OS(=O)(=O)O)C7OS(=O)(=O)O)C(OS(=O)(=O)O)C6OS(=O)(=O)O)C(OS(=O)(=O)O)C5OS(=O)(=O)O)C(OS(=O)(=O)O)C4OS(=O)(=O)O)C(OS(=O)(=O)O)C3OS(=O)(=O)O", "note": "(stereo not drawn) [β-CDsul, β-cyclodextrin sulfate]", "values": [
      {"measurement": "fold difference in IC50 values, EcoRI vs HindIII or VspI", "setting": "EcoRI; EcoRI vs HindIII or VspI", "result": "13- to 27 fold"},
      {"measurement": "IC50", "setting": "EcoRI; [6]", "result": 5, "unit": "µM"},
      {"measurement": "fold more potent at inhibiting EcoRI compared with HindIII", "setting": "EcoRI; ratio of IC50s, EcoRI vs HindIII", "result": 13, "unit": "fold"},
      {"measurement": "fold more potent at inhibiting EcoRI compared with VspI", "setting": "EcoRI; ratio of IC50s, EcoRI vs VspI", "result": "about 27 fold"},
      {"measurement": "IC50", "setting": "Nrul", "result": 3, "unit": "µM"},
      {"measurement": "IC50", "setting": "HindIII [1]", "result": 65, "unit": "µM"},
      {"measurement": "IC50", "setting": "VspI", "result": 133, "unit": "µM"},
      {"measurement": "fold difference in IC50 against VspI and HindIII", "setting": "VspI; VspI vs HindIII", "result": "two-fold"},
      {"measurement": "time of maximum concentration of fragment A in EcoRI/VspI co-digestion", "setting": "EcoRI and VspI [2]; [7]", "result": 60, "unit": "min"},
      {"measurement": "digestion in EcoRI/VspI co-digestion", "setting": "EcoRI and VspI [2]; Five hundred micromolar β-CDsul, 120 min", "result": "no digestion by either RE"},
      {"measurement": "decrease of fragment A concentration (EcoRI action) in EcoRI/VspI co-digestion", "setting": "EcoRI and VspI [3]; [7]", "result": "does not decrease until 240 min"},
      {"measurement": "EcoRI inhibition in EcoRI/VspI co-digestion (fragment A concentration)", "setting": "EcoRI and VspI [3]; between 5 and 10 μM β-CDsul, 120 min, still no Nl-pBR322, VspI less affected", "result": "significant increase in EcoRI inhibition"},
      {"measurement": "IC50", "setting": "HindIII [4]", "result": 6, "unit": "µM"}
    ]},
    {"smiles": "O=C(O)CN(CCN(CC(=O)O)CC(=O)O)CC(=O)O", "note": "[EDTA]", "values": [
      {"measurement": "IC50", "setting": "EcoRI; [6]", "result": "18 µM and 17 µM"},
      {"measurement": "IC50", "setting": "EcoRI; all three enzymes, Nl-pBR322, read-out: range of IC50 values across EcoRI, HindIII and VspI", "result": "12 to 17", "unit": "µM"},
      {"measurement": "IC50", "setting": "HindIII [5]", "result": "13 µM and 12 µM"},
      {"measurement": "IC50", "setting": "VspI", "result": 12, "unit": "µM"}
    ]},
    {"smiles": "O=C1N2CN3C(=O)N4CN5C(=O)N6CN7C(=O)N8CN9C(=O)N%10CN%11C(=O)N%12CN%13C(=O)N%14CN1C1C2N2CN%15C(=O)N(CN%16C(=O)N(CN%17C(=O)N(CN%18C(=O)N(CN%19C(=O)N(CN%20C(=O)N(CN1C2=O)C%14C%13%20)C%12C%11%19)C%10C9%18)C8C7%17)C6C5%16)C4C3%15", "note": "(stereo not drawn) [CB7]", "values": [
      {"measurement": "IC50", "setting": "XapI; linearised pGL3-Basic DNA", "result": "~500", "unit": "µM"},
      {"measurement": "IC50", "setting": "XapI; plasmid pGL3-Basic DNA", "result": "~500", "unit": "µM"},
      {"measurement": "IC50", "setting": "KpnI; linearised pGL3-Basic DNA", "result": "~200", "unit": "µM"},
      {"measurement": "IC50", "setting": "KpnI; plasmid pGL3-Basic DNA", "result": "~90", "unit": "µM"},
      {"measurement": "IC50", "setting": "SacI; linearised pGL3-Basic DNA", "result": "~350", "unit": "µM"},
      {"measurement": "IC50", "setting": "SacI; plasmid pGL3-Basic DNA", "result": "~250", "unit": "µM"}
    ]},
    {"smiles": "OC[C@H]1O[C@@H]2O[C@H]3[C@H](O)[C@@H](O)[C@@H](O[C@H]4[C@H](O)[C@@H](O)[C@@H](O[C@H]5[C@H](O)[C@@H](O)[C@@H](O[C@H]6[C@H](O)[C@@H](O)[C@@H](O[C@H]7[C@H](O)[C@@H](O)[C@@H](O[C@H]8[C@H](O)[C@@H](O)[C@@H](O[C@H]1[C@H](O)[C@H]2O)O[C@@H]8CO)O[C@@H]7CO)O[C@@H]6CO)O[C@@H]5CO)O[C@@H]4CO)O[C@@H]3CO", "note": "[β-CD]", "values": [
      {"measurement": "inhibition of REs", "setting": "REs", "result": "no inhibition was observed"}
    ]}
  ]
}
